Data: patent publication US20050124494A1, “Compositions comprising a phosphonic compound, and acids as methods for plant growth and regulatory effects” (priority 2003, published 2005)

System: Cotton
Test: Defoliation of cotton by ethephon with and without muratic acid, field trial Bells TN October 2003
Format: in vivo
Details: for Cotton LEAF DEFOLIATION 3 DA-A: rating date Oct. 13, 2003, 3 days after application; for Cotton LEAF DEFOLIATION 6 DA-A: rating date Oct. 16, 2003, 6 days after application
Description: A preferred mixture would be […] 10%-20% and Phosphoric Acid 1%-40%. This formulation would then be mixed with water as a carrier and applied to the foliage of the target plant at a rate of 3 gallons/Acre to 30 gallons/Acre.

[1] = ethephon 16 FL OZ/A (muratic acid 4 % V/V where combined)
[2] = ethephon 32 FL OZ/A (muratic acid 4 % V/V where combined)

| Compound | Effect of added acid on efficacy of ethephon and speed of the effect on cotton defoliation (summary in words of Table 1) | Cotton LEAF DEFOLIATION 3 DA-A [1] | Cotton LEAF DEFOLIATION 6 DA-A [1] | Cotton LEAF DEFOLIATION 3 DA-A [2] | Cotton LEAF DEFOLIATION 6 DA-A [2] |
| --- | --- | --- | --- | --- | --- |
| Cl [Muratic Acid] | increased the efficacy of ethephon and the speed of the effect |  |  |  |  |
| O=P(O)(O)CCCl [ETHEPHON, (2-chloroethyl)phosphonic acid] |  | 10.8% | 19.6% | 16.7% | 16.7% |
